Measured values: patent US20260048066A1, “TREATMENT OF NEURODEGENERATIVE DISORDERS UTILISING METHYLTHIONINIUM (MT)-CONTAINING COMPOUNDS” (WISTA LABORATORIES LTD, priority 2022, published 2026)
Like-named read-outs stand apart in the source and are kept apart here.

Assays:
[1] = LUCIDITY trial: plasma HMT/MT levels; format: in vivo; conditions: human, oral
Experimental: At Visits 2, 3, 7 and 10, timed morning blood samples are collected for determination of plasma level of the drug. Samples are collected prior to dosing and then at 1, 2, and 4 hours post dose. A single blood sample for apolipoprotein E (ApoE) is obtained from participants who provide informed consent at any time after eligibility determination and prior to Visit 7. Blood may also be analyzed for other biomarkers for possible future research related to determination of potential biomarker predictors or surrogates for treatment response, to be described in a separate protocol.
All patients received 16 mg/day (i.e. 8 mg twice daily) from Visit 7 onwards.
The steady-state plasma concentrations (Visit 4. 1 h post-dose) in each dosing arm was investigated further. Patients were grouped based on plasma concentration.

[2] = system: participants with severity ranging from mild cognitive impairment (MCI) to moderate AD; test: LUCIDITY trial: safety and tolerability; format: in vivo, human
Experimental: All safety assessments are performed during Screening to assess subject eligibility, by an independent qualified medical assessor not involved in efficacy assessments. For the enrolled participants, safety assessments are undertaken at Baseline and at each clinic visit after 4, 13, 26, 39, and 52 weeks during the double-blind treatment period, as well as after 56 (telephone assessment, or on-site in UK), 78, and 104 weeks in the open-label, delayed-start phase; when needed to follow up on a treatment-emergent adverse event (AE); and upon early termination (Table 1). Patients are followed as needed for the resolution or stabilization of any AE, consistent with the investigator's medical judgement.

[3] = Completed hydromethylthionine mesylate Phase 3 studies: estimated treatment effect; format: in vivo, human
Experimental: Sample size estimations to achieve 90% power (two-sided alpha=0.05) to detect a difference between hydromethylthionine mesylate 16 mg/day and placebo, the primary treatment group comparison in the double-blind treatment period, have been performed for the two co-primary clinical end points, assuming a withdrawal rate of 20% to 25%. The study sample size of approximately 450 is based on the ADCS-ADL23, which has a larger standard deviation (SD) than ADAS-Cog11. Based on an estimated decline in ADCS-ADL23 over 52 weeks in the control arm of 7.7 units with an estimated SD of 8.5 units, the study will have >90% power to detect a reduction in decline of 3.4 units or more. The 3.4-unit effect size is derived from an estimated treatment effect of 5.0±1.6 (mean±standard error) units in the completed hydromethylthionine mesylate studies. Based on an estimated decline of 6.5 units in ADAS-Cog11 over 52 weeks with an estimated SD of 5.9 units, 200 participants per treatment arm provide >90% power to detect a reduction in decline of 2.6 units or more, provided by a conservative value of the estimated treatment effect based on pooled completed Phase 3 studies of −5.2±1.3 (mean±standard error) units in completed hydromethylthionine mesylate studies.

red cells = conditions: in vivo, administered intravenously; cited from earlier work
[4] = system: participants with severity ranging from mild cognitive impairment (MCI) to moderate AD; test: LUCIDITY Phase 3 trial: cognitive (ADAS-cog), functional (ADCS-ADL) and brain atrophy outcomes; format: in vivo, human
Excerpt: The LUCIDITY trial (NCT03446001; EudraCT: 2017-003558-17) is a Phase 3, randomized, double-blind, placebo-controlled, outpatient trial to evaluate the safety, efficacy, and tolerability of hydromethylthionine mesylate monotherapy in participants with severity ranging from mild cognitive impairment (MCI) to moderate AD. The initial 12-month blinded period is followed by a 12-month, open-label extension period to provide comparative, delayed-start data. There are 76 study sites located in Canada, France, Italy, Poland, Spain, United Kingdom and United States. The protocol was approved by an institutional review board or independent ethics committee at each site.
Following screening, eligible participants are randomized at baseline in a 4:1:4 ratio to receive hydromethylthionine mesylate 16 mg/day, hydromethylthionine mesylate 8 mg/day, or placebo. Following completion of the 52-week double-blind treatment period, all participants continue open-label treatment with hydromethylthionine mesylate 16 mg/day for a further 52 weeks. Participants who were randomized to start on HMTM are considered early-starters; patients who begin on placebo and switch to HMTM at week 52 are considered delayed starters. Unlike a traditional delayed start design, in which participants remain blinded to treatment throughout the trial, treatment during weeks 52 to 104 is open-label, although participants and the site study staff remain blinded to prior treatment assignment. Randomization was stratified by severity (three levels: MMSE 16-19, 20-25, or 26-27, with a target ratio of approximately 2:3:1), prior use of symptomatic treatments (AChEls and/or memantine-two levels: prior use or none), and region (two levels: Canada/USA or UK/Europe). To achieve this target, enrolment was monitored and controlled at the site level for high recruiting sites and capped as needed at the study level. Patients who dropped out after randomization were not replaced, but participants were encouraged to continue with study visits off treatment until the scheduled completion of the double-blind treatment period (Visit 7). Only participants who continued in the study and receive hydromethylthionine mesylate treatment up to and including the last visit (Visit 10) without the addition of concomitant AChEls and/or memantine were eligible for continued treatment in a subsequent expanded access program.
The active and placebo treatment formulations are tablets that look visually the same. Hydromethylthionine mesylate can cause variable urinary discoloration. Therefore, to maintain blinding, the placebo group receives tablets containing a urinary discolourant (MTC, 4 mg) included among blank tablets containing only excipients on a varying schedule with an average frequency of 2/week.
Dosing frequency of 4 mg MTC tablets was on a varying schedule, such that each patient received a 4 mg tablet among the blanks on average twice per week. All subjects (on all arms) received 4 tablets at two times of day. This allowed for 2×4 mg followed by 2×4 mg to give 16 mg/day dose. 4 tablets were also given daily for placebo (2×placebo then 2×placebo) with 4 mg MTC tablets inserted at a rate of 2 per week i.e. 2 MTC tablets out of 28 per week, with remainder being true placebo.
Participants had to be aged less than 90 years and meet the diagnostic criteria for probable AD or MCI-AD and must not have been taking an AChEl or memantine, for at least 60 days at Baseline. They must have been community-dwelling, have a mini mental state exam (MMSE) score of 16-27, and with functional impairment as evidenced by a Clinical Dementia Dating (CDR) stage of 0.5 to 2 at screening. […] All patients must also have at least one study partner, consenting to their own participation; study partners can be changed so long as they have sufficient contact to complete outcome and safety assessments meaningfully and verify compliance with trial treatment. […]

[5] = LUCIDITY trial: plasma HMT/MT levels; format: in vivo, human; conditions: MTC 4 mg twice weekly; after 12 months of treatment
[6] = 16 mg/day, whole study population, MCI to moderate disease

SMILES: CN(C)c1ccc2c(c1)Sc1cc(N(C)C)ccc1N2 [HMT, N3,N3,N7,N7-tetramethyl-10H-phenothiazine-3,7-diamine]
- concentration at 1 h ([1]; all dosing arms pooled, steady-state plasma, 1 h post-dose, read-out: Mean value HMT conc): 0.2 ng/mL
- concentration at 1 h ([1]; all dosing arms pooled, sub-group BLLOQ (values set to zero), 1 h post-dose, read-out: Mean value HMT conc): 0 ng/mL
- concentration at 1 h ([1]; all dosing arms pooled, sub-group high, 1 h post-dose, read-out: Mean value HMT conc): 0.41 ng/mL
- concentration at 1 h ([1]; all dosing arms pooled, sub-group mid, 1 h post-dose, read-out: Mean value HMT conc): 0.04 ng/mL
- concentration at 1 h ([1]; all dosing arms pooled, sub-group ultralow, 1 h post-dose, read-out: Mean value HMT conc): 0.01 ng/mL

SMILES: CN(C)c1ccc2c(c1)Sc1cc(N(C)C)ccc1N2.CS(=O)(=O)O.CS(=O)(=O)O [LMTM, N,N,N′,N′-tetramethyl-10H-phenothiazine-3,7-diaminium bis(hydromethanesulfonate)]
- concentration at 1 h ([1]; 8 mg/day, 8 mg/day LMTM arm, sub-group BLLOQ (set to zero), steady state 1 h post-dose, read-out: Mean HMT conc): 0 ng/mL
- concentration at 1 h ([1]; 8 mg/day, 8 mg/day LMTM arm, sub-group high, steady state 1 h post-dose, read-out: Mean HMT conc): 0.26 ng/mL
- concentration at 1 h ([1]; 8 mg/day, 8 mg/day LMTM arm, sub-group mid, steady state 1 h post-dose, read-out: Mean HMT conc): 0.05 ng/mL
- concentration at 1 h ([1]; 16 mg/day, 16 mg LMTM/day group, week 4, 1h post dose, read-out: overall mean plasma concentration): 0.5 ng/mL
- concentration at 1 h ([1]; 16 mg/day, 16 mg/day LMTM arm, sub-group BLLOQ (set to zero), steady state 1 h post-dose, read-out: Mean HMT conc): 0 ng/mL
- concentration at 1 h ([1]; 16 mg/day, 16 mg/day LMTM arm, sub-group high, steady state 1 h post-dose, read-out: Mean HMT conc): 0.5 ng/mL
- concentration at 1 h ([1]; 16 mg/day, 16 mg/day LMTM arm, sub-group mid, steady state 1 h post-dose, read-out: Mean HMT conc): 0.04 ng/mL
- concentration at 1 h ([1]; 16 mg/day, 16 mg/day LMTM arm, sub-group ultralow, steady state 1 h post-dose, read-out: Mean HMT conc): 0.02 ng/mL
- treatment-related serious adverse events and amyloid related imaging abnormalities (ARIA) [2]: no treatment-related serious adverse events or evidence of amyloid related imaging abnormalities (ARIA)
- estimated treatment effect on ADCS-ADL23 (mean±standard error) ([3]; completed hydromethylthionine mesylate studies): 5.0±1.6 units
- estimated treatment effect on ADAS-Cog11 (mean±standard error) ([3]; pooled completed Phase 3 studies): −5.2±1.3 units
- MT uptake into red cells, fold higher compared with MTC (red cells): approximately 20 fold
- disease progression by change in cognitive function (p=0.0008) and brain atrophy (p<0.0001) against matched ADNI subjects ([4]; 16 mg/day): Statistically significant reductions in disease progression
- decline in cognitive and functional measures ([4]; 16 mg/day LMTM as monotherapy): zero or minimal decline
- decline on ADAS-cog11 over the first 12 months [4, 6]: 1.3 ADAS-cog11 units
- decline on ADCS-ADL23 over the first 12 months [4, 6]: −1.0 ADCS-ADL23 units
- cognitive improvement over baseline on the ADAS-cog13 scale ([4]; 105 patients with MCI, 16 mg/day, at 6 months (p=0.0002), 12 months (p=0.0391) and 18 months (p=0.0473)): 2 units
- cognitive decline in the first 9 months ([4]; 147 patients with mild/moderate AD, 16 mg/day): 2.5 unit
- cognitive decline over the following 9 months ([4]; 147 patients with mild/moderate AD, 16 mg/day, months 9 to 18): no further decline
- rate of progression of brain atrophy ([4]; MCI participants, HMTM 16 mg/day, versus ADNI MCI subjects (p<0.0001)): significantly less than in ADNI MCI subjects
- mean change on the instrumental activities of daily living subscale of ADCS-ADL ([4]; MCI patients, 16 mg/day, at 6, 12 and 18 months): remained above the pre-treatment baseline
- reduction in functional decline relative to published meta-analysis of placebo decline data ([4]; mild/moderate AD, 16 mg/day, ADCS-ADL): about 75%
- functional decline on the ADCS-ADL scale ([4]; mild/moderate AD, 16 mg/day, at 12 months): −2 units
- functional decline on the ADCS-ADL scale ([4]; mild/moderate AD, 16 mg/day, at 18 months): −3 units
- treatment effects on cognitive and functional decline versus placebo decline data of anti-amyloid trials ([4]; over 18 months): about three-fold larger

SMILES: CN(C)c1ccc2nc3ccc(N(C)C)cc3[s+]c2c1 [MTC, methylthioninium chloride]
- AD patients with plasma levels above 0.10 ng/ml (Cmax) [5]: 89%
- treatment effect on ADAS-cog compared to expected decline ([4]; control group (4 mg MTC twice weekly), high plasma HMT group, 12 months): -4.73±2.01
- ADAS-cog decline ([4]; control group (4 mg MTC twice weekly), ultra-low plasma HMT cases, 12 months): 3.75±0.79
